# Results published in patent publication US20240319211A1, “CONTENT CONVERSION METHOD OF FREE COMPONENTS BY TRANSFORMING ULTRAFILTRATION TO EQUILIBRIUM DIALYSIS” (HEFEI NOVA-MS BIOTECH MEDICAL EQUIPMENT CO., LTD, priority 2022, published 2024).
# “And” between values parts separate entries of the source, which are not always exact repeats. Equal values may be shown once.
# Legend:
# [1] = FT4 in serum by equilibrium dialysis (ED), LC-MS/MS; format: in vitro ADME, human; conditions: for Concentration ED, Average: average of 10 samples; for Concentration ED: serum, individual samples No. 1-10
# Source text: (§1) In practice, other temperatures can also be used. […] Where
# [2] = FT4 in serum by ultrafiltration (UF), LC-MS/MS; format: in vitro ADME, human; conditions: for Concentration UF, Average: average of 10 samples; for Concentration UF: serum, individual samples No. 1-10
# Source text: as §1
# [3] = FT3 in serum by ultrafiltration (UF), LC-MS/MS; conditions: for Concentration UF, Average: average of 10 samples; for Concentration UF: serum, individual samples No. 1-10
# Experimental: (§2) In a method in this embodiment, ultrafiltration and equilibrium dialysis are performed to separate free triiodothyronine (FT3) at 20° C., 25° C., 30° C., and 37° C., respectively. In practice, another temperature value may be used. Where
# (§3) Ultrafiltration: 100 μL 4-hydroxyethyl piperazine ethanesulfonic acid solution is added to a 100 μL serum, and the solution is mixed well by pipettes. Subsequently, the obtained mixture is transferred to the activated ultrafiltration tube and centrifuged at 20° C., 25° C., 30° C., and 37° C., and 2000 g for 1 h, respectively.
# Internal standard precipitation: 100 μL internal standard solution is added to 100 μL ultrafiltrate, and vortexed well for 3 min. Then, centrifugation is performed at 4° C. and 12000 rpm for 10 min.
# (§4) After the free T3 is separated by using ultrafiltration and equilibrium dialysis, the free T3 is detected by the following high-performance liquid chromatography tandem mass spectrometry parameters:
# (§5) chromatographic column: Acquity UPLC BEH C18 (2.1×50 mm, 1.7 μm); column oven temperature: 30° C.; mobile phases: 0.1% formic acid aqueous solution (A)˜0.1% formic acid methanol (B); and gradient elution: […]
# (§6) ion source: electrospray ion source in positive ion mode; spray voltage: 5500 V; ion source temperature: 550° C.; GS1: 50 psi; GS2: 50 psi; curtain gas: 30 psi; and multiple reaction monitoring: […]
# [4] = FT3 in serum by equilibrium dialysis (ED), LC-MS/MS; conditions: for Concentration ED, Average: average of 10 samples; for Concentration ED: serum, individual samples No. 1-10
# Experimental: as §2
# (§7) Equilibrium dialysis: 200 μL 4-hydroxyethyl piperazine ethanesulfonic acid solution is placed on the buffer side of the equilibrium plate, 200 μL serum is placed on the sample side. Subsequently, the equilibrium dialysis plate is dialyzed at 20° C., 25° C., 30° C., and 37° C. for 22 h, respectively.
# Internal standard precipitation: 100 μL internal standard solution is added to 100 μL dialysate and vortexed well for 3 min. Then, centrifugation is performed at 4° C. and 12000 rpm for 10 min.
# as §4, §5, §6
# [5] = free testosterone in serum by equilibrium dialysis (ED), LC-MS/MS; conditions: for Concentration ED, Average: average of 10 samples; for Concentration ED: serum, individual samples No. 1-10
# Experimental: (§8) In practice, other temperatures can also be used. Subsequently, high-performance liquid chromatography tandem mass spectrometry is used for detection, and results are shown in Table 1. Where
# as §7, with “the equilibrium dialysis plate, 200” for “the equilibrium plate, 200”
# (§9) Solid-phase extraction: 20 μL internal standard solution is added to 200 μL dialysate, and vortexed well. The obtained mixture is added to an activated HLB solid-phase extraction: conditioning is performed twice by 300 μL 10% methanol aqueous solution, elution is performed twice by using 300 μL 90% methanol aqueous solution, eluent is merged and blown to dry by nitrogen, and finally, the obtained product is redissolved by 100 μL 50% methanol aqueous solution.
# (§10) Chromatographic column: Acquity UPLC BEH C18 (2.1×50 mm, 1.7 μm); column oven temperature: 40° C.; mobile phases: 0.1% formic acid 2 mM ammonium acetate aqueous solution (A)˜methanol (B); and gradient elution: […]
# as §6
# [6] = free testosterone in serum by ultrafiltration (UF), LC-MS/MS; conditions: for Concentration UF, Average: average of 10 samples; for Concentration UF: serum, individual samples No. 1-10
# Experimental: as §8
# as §3, with “900” for “100”, “300” for “a 100”
# as §9, with “600” for “200”, “ultrafiltrate,” for “dialysate,”, “by” for “by using”
# as §10, §6
compound,measurement,setting,value
"N[C@@H](Cc1cc(I)c(Oc2cc(I)c(O)c(I)c2)c(I)c1)C(=O)O [FT4, thyroxine]","Concentration ED, Average",[1]; 20° C.,6.83 pg/mL
same,Concentration ED,[1]; 20° C.,7.05 pg/mL (2×) and 6.91 pg/mL and 6.85 pg/mL and 6.76 pg/mL and 6.71 pg/mL and 6.42 pg/mL and 6.83 pg/mL and 6.84 pg/mL and 6.90 pg/mL
same,"Concentration ED, Average",[1]; 25° C.,8.53 pg/mL
same,Concentration ED,[1]; 25° C.,8.37 pg/mL and 8.33 pg/mL and 8.83 pg/mL and 8.05 pg/mL and 8.24 pg/mL and 8.94 pg/mL and 8.47 pg/mL and 8.69 pg/mL and 8.73 pg/mL and 8.65 pg/mL
same,"Concentration ED, Average",[1]; 30° C.,10.80 pg/mL
same,Concentration ED,[1]; 30° C.,10.91 pg/mL and 11.07 pg/mL and 11.18 pg/mL and 10.63 pg/mL (2×) and 10.46 pg/mL and 10.98 pg/mL and 10.74 pg/mL and 10.67 pg/mL and 10.75 pg/mL
same,"Concentration ED, Average",[1]; 37° C.,14.22 pg/mL
same,Concentration ED,[1]; 37° C.,14.17 pg/mL and 14.64 pg/mL and 13.61 pg/mL and 14.22 pg/mL and 14.67 pg/mL and 14.63 pg/mL and 13.94 pg/mL and 14.15 pg/mL and 14.11 pg/mL and 14.06 pg/mL
same,"Concentration UF, Average",[2]; 20° C.,6.85 pg/mL
same,Concentration UF,[2]; 20° C.,7.21 pg/mL and 6.77 pg/mL and 6.78 pg/mL (2×) and 6.40 pg/mL and 6.94 pg/mL and 6.85 pg/mL and 7.01 pg/mL and 6.90 pg/mL and 6.81 pg/mL
same,"Concentration UF, Average",[2]; 25° C.,8.51 pg/mL
same,Concentration UF,[2]; 25° C.,7.92 pg/mL and 8.97 pg/mL and 8.74 pg/mL and 8.58 pg/mL and 8.14 pg/mL and 8.06 pg/mL and 8.57 pg/mL and 8.72 pg/mL and 8.63 pg/mL and 8.76 pg/mL
same,"Concentration UF, Average",[2]; 30° C.,10.58 pg/mL
same,Concentration UF,[2]; 30° C.,10.73 pg/mL and 9.82 pg/mL and 10.55 pg/mL and 10.61 pg/mL and 10.97 pg/mL and 10.75 pg/mL and 10.82 pg/mL and 10.57 pg/mL and 10.33 pg/mL and 10.63 pg/mL
same,"Concentration UF, Average",[2]; 37° C.,14.00 pg/mL
same,Concentration UF,[2]; 37° C.,13.45 pg/mL and 13.82 pg/mL and 14.14 pg/mL and 13.57 pg/mL and 14.22 pg/mL and 14.58 pg/mL and 13.74 pg/mL and 14.05 pg/mL and 14.26 pg/mL and 14.16 pg/mL
"N[C@@H](Cc1cc(I)c(Oc2ccc(O)c(I)c2)c(I)c1)C(=O)O [FT3, triiodothyronine]","Concentration UF, Average",[3]; 20° C.,2.34 pg/mL
same,Concentration UF,[3]; 20° C.,2.54 pg/mL and 2.25 pg/mL and 2.36 pg/mL (2×) and 2.41 pg/mL and 2.32 pg/mL and 2.28 pg/mL and 2.17 pg/mL and 2.52 pg/mL and 2.23 pg/mL
same,"Concentration UF, Average",[3]; 25° C.,2.58 pg/mL
same,Concentration UF,[3]; 25° C.,2.52 pg/mL and 2.62 pg/mL and 2.45 pg/mL and 2.68 pg/mL and 2.58 pg/mL and 2.46 pg/mL and 2.57 pg/mL and 2.65 pg/mL and 2.71 pg/mL and 2.53 pg/mL
same,"Concentration UF, Average",[3]; 30° C.,2.73 pg/mL
same,Concentration UF,[3]; 30° C.,2.68 pg/mL and 2.75 pg/mL (2×) and 2.82 pg/mL and 2.66 pg/mL and 2.78 pg/mL and 2.58 pg/mL and 2.84 pg/mL and 2.72 pg/mL and 2.67 pg/mL
same,"Concentration UF, Average",[3]; 37° C.,3.19 pg/mL
same,Concentration UF,[3]; 37° C.,3.05 pg/mL (2×) and 3.24 pg/mL and 3.13 pg/mL and 3.48 pg/mL and 3.20 pg/mL and 3.18 pg/mL and 3.27 pg/mL and 3.08 pg/mL and 3.17 pg/mL
same,"Concentration ED, Average",[4]; 20° C.,2.40 pg/mL
same,Concentration ED,[4]; 20° C.,2.45 pg/mL and 2.62 pg/mL and 2.25 pg/mL and 2.35 pg/mL and 2.48 pg/mL and 2.36 pg/mL and 2.27 pg/mL and 2.46 pg/mL and 2.42 pg/mL and 2.31 pg/mL
same,"Concentration ED, Average",[4]; 25° C.,2.61 pg/mL
same,Concentration ED,[4]; 25° C.,2.65 pg/mL and 2.75 pg/mL and 2.52 pg/mL and 2.61 pg/mL and 2.48 pg/mL and 2.54 pg/mL and 2.68 pg/mL and 2.70 pg/mL and 2.63 pg/mL and 2.57 pg/mL
same,"Concentration ED, Average",[4]; 30° C.,2.77 pg/mL
same,Concentration ED,[4]; 30° C.,2.72 pg/mL and 2.65 pg/mL and 2.85 pg/mL (2×) and 2.88 pg/mL and 2.68 pg/mL and 2.76 pg/mL and 2.78 pg/mL (2×) and 2.71 pg/mL
same,2nd conc. (ED),"[4]; 37° C. equilibrium dialysis 22 h, 60 different serum specimens",3.05 and 3.18 and 3.17 and 3.22 and 3.04 and 3.24 and 3.19 and 3.48
same,"Concentration ED, Average",[4]; 37° C.,3.22 pg/mL
same,Concentration ED,[4]; 37° C.,3.13 pg/mL and 3.22 pg/mL and 3.04 pg/mL and 3.32 pg/mL and 3.15 pg/mL and 3.31 pg/mL (2×) and 3.34 pg/mL and 3.28 pg/mL and 3.12 pg/mL
"C[C@]12CC[C@H]3[C@@H](CCC4=CC(=O)CC[C@@]43C)[C@@H]1CC[C@@H]2O [free testosterone, testosterone]","Concentration ED, Average",[5]; 20° C.,4.08 pg/mL
same,Concentration ED,[5]; 20° C.,4.05 pg/mL (2×) and 4.17 pg/mL and 3.94 pg/mL and 4.21 pg/mL and 3.85 pg/mL and 4.18 pg/mL and 4.01 pg/mL and 4.16 pg/mL and 4.22 pg/mL
same,"Concentration ED, Average",[5]; 25° C.,4.55 pg/mL
same,Concentration ED,[5]; 25° C.,4.75 pg/mL and 4.61 pg/mL and 4.48 pg/mL and 4.56 pg/mL and 4.41 pg/mL and 4.62 pg/mL and 4.57 pg/mL and 4.42 pg/mL and 4.50 pg/mL and 4.54 pg/mL
same,"Concentration ED, Average",[5]; 30° C.,4.93 pg/mL
same,Concentration ED,[5]; 30° C.,5.04 pg/mL and 5.01 pg/mL and 4.95 pg/mL and 5.02 pg/mL and 4.85 pg/mL and 4.87 pg/mL and 4.91 pg/mL and 4.98 pg/mL and 4.84 pg/mL and 4.82 pg/mL
same,"Concentration ED, Average",[5]; 37° C.,5.21 pg/mL
same,Concentration ED,[5]; 37° C.,5.40 pg/mL and 4.95 pg/mL and 5.23 pg/mL and 5.42 pg/mL and 5.12 pg/mL and 5.32 pg/mL and 5.22 pg/mL and 5.27 pg/mL and 5.13 pg/mL and 5.07 pg/mL
same,"Concentration UF, Average",[6]; 20° C.,4.12 pg/mL
same,Concentration UF,[6]; 20° C.,4.26 pg/mL and 4.29 pg/mL and 4.01 pg/mL and 4.38 pg/mL and 3.98 pg/mL and 3.92 pg/mL and 4.15 pg/mL and 4.12 pg/mL and 3.97 pg/mL and 4.07 pg/mL
same,"Concentration UF, Average",[6]; 25° C.,4.50 pg/mL
same,Concentration UF,[6]; 25° C.,4.37 pg/mL and 4.64 pg/mL (2×) and 4.51 pg/mL (2×) and 4.45 pg/mL and 4.39 pg/mL and 4.48 pg/mL and 4.43 pg/mL and 4.61 pg/mL
same,"Concentration UF, Average",[6]; 30° C.,4.81 pg/mL
same,Concentration UF,[6]; 30° C.,4.69 pg/mL and 4.96 pg/mL (2×) and 4.83 pg/mL and 4.79 pg/mL and 4.58 pg/mL and 4.85 pg/mL and 4.91 pg/mL and 4.74 pg/mL and 4.77 pg/mL
same,"Concentration UF, Average",[6]; 37° C.,5.16 pg/mL
same,Concentration UF,[6]; 37° C.,5.12 pg/mL and 5.28 pg/mL and 5.30 pg/mL and 5.04 pg/mL and 5.16 pg/mL (2×) and 5.18 pg/mL and 5.24 pg/mL and 5.03 pg/mL and 5.07 pg/mL
